# Measured values published in patent publication US20060128721A1, “Novel formulations of opioid-based treatments of pain comprising substituted 1,4-di-piperidin-4-yl-piperazine derivatives” (priority 2003, published 2006).
# Like-named read-outs stand apart in the source and are kept apart here.
# Assays:
# [1] = biological target: T1, cloned human h-NK2 receptors expressed in Sf9 cells (Homo sapiens, UniProt P21452); assay: Binding experiment for h-NK2 receptors ([3H]-SR-48968 displacement); details: [3H]-SR-48968, Sf9 cells; read-out: h-NK2 pIC50 (converted)
# T1 construct: expressed in transfected cells; host or cells: Sf9 cells
# T1 sequence (P21452 1-398): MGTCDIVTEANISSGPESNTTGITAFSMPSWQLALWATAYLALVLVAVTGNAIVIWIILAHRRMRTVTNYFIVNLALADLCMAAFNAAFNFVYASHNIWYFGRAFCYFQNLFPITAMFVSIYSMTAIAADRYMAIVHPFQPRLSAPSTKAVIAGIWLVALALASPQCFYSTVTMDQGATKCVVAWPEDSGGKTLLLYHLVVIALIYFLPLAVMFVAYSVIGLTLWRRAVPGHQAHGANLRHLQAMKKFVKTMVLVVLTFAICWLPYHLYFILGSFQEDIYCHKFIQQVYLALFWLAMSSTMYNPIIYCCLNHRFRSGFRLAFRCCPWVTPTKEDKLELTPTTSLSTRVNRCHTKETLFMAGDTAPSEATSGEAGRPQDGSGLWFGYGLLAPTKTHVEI
# Description: (§1) The compounds according to the invention were investigated for interaction with various neurotransmitter receptors, ion channels and transporter binding sites using the radioligand binding technique. Membranes from tissue homogenates or from cells, expressing the receptor or transporter of interests, were incubated with a radioactively labelled substance ([^3H]- or [^125I] ligand) to label a particular receptor. […] Following incubation, labelled membranes were harvested and rinsed with excessive cold buffer to remove non-bound radioactivity by rapid filtration under suction. Membrane bound radioactivity was counted in a scintillation counter and results were expressed in counts per minute (cpm).
# (§2) The compounds were dissolved in DMSO and tested at 10 concentrations ranging from 10^−10 to 10^−5 M.
# (§3) The ability of the compounds according to the invention to displace [^3H]-Substance P from cloned human h-NK1 receptors expressed in CHO cells, to displace [^3H]-SR-48968 from cloned human h-NK2 receptors expressed in Sf9 cells, and to displace [^3H]-SR-142801 from cloned human h-NK3 receptors expressed in CHO cells was evaluated.
# [2] = biological target: T2, cloned human h-NK3 receptors expressed in CHO cells (Homo sapiens, UniProt P29371); assay: Binding experiment for h-NK3 receptors ([3H]-SR-142801 displacement); details: [3H]-SR-142801, CHO cells; read-out: h-NK3 pIC50 (converted)
# T2 construct: expressed in transfected cells; host or cells: CHO cells
# T2 sequence (P29371 1-465): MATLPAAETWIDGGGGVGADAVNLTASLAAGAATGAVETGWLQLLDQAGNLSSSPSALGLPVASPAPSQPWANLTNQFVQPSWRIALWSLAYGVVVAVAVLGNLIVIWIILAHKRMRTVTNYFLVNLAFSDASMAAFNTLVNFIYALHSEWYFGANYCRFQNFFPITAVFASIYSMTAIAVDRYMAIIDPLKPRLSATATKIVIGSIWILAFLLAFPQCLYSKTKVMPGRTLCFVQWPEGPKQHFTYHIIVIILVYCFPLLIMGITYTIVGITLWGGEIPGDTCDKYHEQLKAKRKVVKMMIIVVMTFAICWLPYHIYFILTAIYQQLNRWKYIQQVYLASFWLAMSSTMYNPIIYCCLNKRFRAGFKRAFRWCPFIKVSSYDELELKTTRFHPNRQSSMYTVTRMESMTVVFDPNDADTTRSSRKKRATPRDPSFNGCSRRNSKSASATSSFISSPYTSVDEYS
# Description: as §1, §2, §3
# [3] = biological target: T3, cloned human h-NK1 receptors expressed in CHO cells (Homo sapiens, UniProt P25103); assay: Binding experiment for h-NK1 receptors ([3H]-Substance P displacement); details: read-out: h-NK1 pIC50 (converted)
# T3 construct: expressed in transfected cells; host or cells: CHO cells
# Description: as §1, §2, §3
# [4] = system: loperamide-induced retching; assay: Antiemetic effects: loperamide-induced retching in ferrets; format: in vivo; details: ferrets
# Description: The antiemetic effects have been determined using the loperamide-induced retching model (i.e. retching induced by an opioid) in ferrets. To exclude species differences in antiemetic activiey, both compounds have also been tested for antiemetic activity against apomorphine in dogs.
# Antagonism of emesis induced by the peripherally selective opioid loperamide (0.31 mg/kg, s.c.) was studied over a 1 h-period starting immediately after the emetic challenge in ferrets pretreated with test compound or solvent. In control animals pre-treated with solvent, loperamide induced pronounced retching (mean±SD: 95±39 counts; n=[…]) and, to a lesser extent, vomiting (5±4).
# T3 sequence (P25103 whole entry): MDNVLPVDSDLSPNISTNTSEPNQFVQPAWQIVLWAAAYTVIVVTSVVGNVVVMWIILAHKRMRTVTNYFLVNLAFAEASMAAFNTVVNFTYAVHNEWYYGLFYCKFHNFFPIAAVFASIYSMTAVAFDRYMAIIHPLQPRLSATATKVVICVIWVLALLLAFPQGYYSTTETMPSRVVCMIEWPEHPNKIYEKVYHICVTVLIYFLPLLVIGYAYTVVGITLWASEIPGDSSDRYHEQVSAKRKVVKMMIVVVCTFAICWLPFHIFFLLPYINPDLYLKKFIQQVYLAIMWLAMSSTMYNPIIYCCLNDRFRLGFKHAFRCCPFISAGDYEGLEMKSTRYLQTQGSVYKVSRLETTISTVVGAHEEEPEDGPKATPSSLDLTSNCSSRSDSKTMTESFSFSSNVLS
structure (smiles),measurement,setting,value
O=C(c1cc(C(F)(F)F)cc(C(F)(F)F)c1)N1CCC(N2CCN(C3CCN(Cc4nc5ccccc5[nH]4)CC3)CC2)CC1Cc1ccccc1 (stereo not drawn) [Compound 7],IC50,[1],1000 nM
same,melting point,,135 °C
same,IC50,[2],1000 nM
same,IC50,[3],7.94 nM
"O=C(c1ccccc1)N1CCC(N2CCN(C3CCN(C(=O)c4cc(C(F)(F)F)cc(C(F)(F)F)c4)C(Cc4ccccc4)C3)CC2)CC1 (stereo not drawn) [Compound 3, {4-[4-(1-benzoyl-piperidin-4-yl)-piperazin-1-yl]-2-benzyl-piperidin-1-yl}-(3,5-bis-trifluoromethyl-phenyl)-methanone]",IC50,[1],501 nM
same,IC50,[2],251 nM
same,ratio of oral ED50 (at time of peak effect) over subcutaneous ED50 (obtained at 1 h),[4],1.4-1.8
same,ED50,"[4]; blockade (=0 retches), intravenous route, 1 h after administration, read-out: ED50 for blockade of loperamide-induced retching",0.88 mg/kg
same,ED50,"[4]; blockade (=0 retches), oral route, 1 h after administration, read-out: ED50 for blockade of loperamide-induced retching",1.65 mg/kg
same,ED50,"[4]; blockade (=0 retches), oral route, 2 h after administration, read-out: ED50 for blockade of loperamide-induced retching",2.18 mg/kg
same,ED50,"[4]; blockade (=0 retches), oral route, 4 h after administration, read-out: ED50 for blockade of loperamide-induced retching",1.25 mg/kg
same,ED50,"[4]; blockade (=0 retches), oral route, 8 h after administration, read-out: ED50 for blockade of loperamide-induced retching",2.89 mg/kg
same,ED50,"[4]; blockade (=0 retches), oral route, 16 h after administration, read-out: ED50 for blockade of loperamide-induced retching",2.89 mg/kg
same,ED50,"[4]; blockade (=0 retches), oral route, 32 h after administration, read-out: ED50 for blockade of loperamide-induced retching",5 mg/kg
same,ED50,"[4]; blockade (=0 retches), oral route, 64 h after administration, read-out: ED50 for blockade of loperamide-induced retching",> 10 mg/kg
same,ED50,"[4]; inhibition (<20 retches), intravenous route, 1 h after administration, read-out: ED50 for inhibition of loperamide-induced retching",0.39 mg/kg
same,ED50,"[4]; inhibition (<20 retches), oral route, 1 h after administration, read-out: ED50 for inhibition of loperamide-induced retching",0.72 mg/kg
same,ED50,"[4]; inhibition (<20 retches), oral route, 2 h after administration, read-out: ED50 for inhibition of loperamide-induced retching",0.96 mg/kg
same,ED50,"[4]; inhibition (<20 retches), oral route, 4 h after administration, read-out: ED50 for inhibition of loperamide-induced retching",1.25 mg/kg
same,ED50,"[4]; inhibition (<20 retches), oral route, 8 h after administration, read-out: ED50 for inhibition of loperamide-induced retching",1.25 mg/kg
same,ED50,"[4]; inhibition (<20 retches), oral route, 16 h after administration, read-out: ED50 for inhibition of loperamide-induced retching",1.26 mg/kg
same,ED50,"[4]; inhibition (<20 retches), oral route, 32 h after administration, read-out: ED50 for inhibition of loperamide-induced retching",3.81 mg/kg
same,ED50,"[4]; inhibition (<20 retches), oral route, 64 h after administration, read-out: ED50 for inhibition of loperamide-induced retching",> 10 mg/kg
same,ED50,"[4]; oral administration, time of peak effect, read-out: graphically estimated peak-effect ED50 for blockade of retching (=0 retches)",1.4 mg/kg
same,duration of action,"[4]; oral, at 4 times the peak-effect dose",32 h
same,Ratio p.o./s.c. of ED50 for blockade of retching,[4]; p.o. (−2 h) over s.c. (−1 h),2.3
same,ED50,"[4]; iv, read-out: ED50 for blockade of retching 1 h after i.v. injection, i.v., 1 h",0.88 mg/kg
same,ED50,"[4]; iv, read-out: ED50 for inhibition of retching 1 h after i.v. injection, i.v., 1 h",0.39 mg/kg
same,ED50,"[4]; read-out: ED50 (95% confidence limits) for blockade of loperamide-induced retching, p.o. route (−2 h), loperamide 0.31 mg/kg s.c., 2 h after oral administration, blockade = 0 retches",2.18 mg/kg
same,ED50,"[4]; read-out: graphically estimated peak-effect ED50 for inhibition of retching (<20 retches), oral administration, time of peak effect",1 mg/kg
same,ED50,"[4]; sc, read-out: ED50 for blockade of loperamide-induced retching, loperamide 0.31 mg/kg s.c., 1 h after subcutaneous administration, blockade = 0 retches",0.96 mg/kg
same,ED50,"[4]; sc, blockade (=0 retches), subcutaneous route, 1 h after administration, read-out: ED50 for blockade of loperamide-induced retching",0.96 mg/kg
same,ED50,"[4]; sc, inhibition (<20 retches), subcutaneous route, 1 h after administration, read-out: ED50 for inhibition of loperamide-induced retching",0.55 mg/kg
same,ED50,"[4]; sc, s.c., 1 h, <20 retches, read-out: ED50 for inhibition of retching one hour after s.c. injection",0.55 mg/kg
same,ED50,"[4]; sc, s.c., 1 h, =0 retches, read-out: ED50 for complete blockade of retching one hour after s.c. injection",0.96 mg/kg
same,IC50,[3],1.26 nM
NC(Cc1ccc(O)cc1)C(=O)N1CCC(N2CCN(C3CCN(C(=O)c4cc(C(F)(F)F)cc(C(F)(F)F)c4)C(Cc4ccccc4)C3)CC2)CC1 (stereo not drawn) [Compound 13],IC50,[1],631 nM
same,IC50,[2],1000 nM
same,IC50,[3],1.26 nM
